# Results reported in article PMC10935199, “Rosmarinic Acid Present in Lepechinia floribunda and Lepechinia meyenii as a Potent Inhibitor of the Adenylyl Cyclase gNC1 from Giardia lamblia” (Plants, 2024).
# Target: T1, adenylyl cyclase gNC1 (Giardia nucleotidyl cyclase 1)
# T1 construct: catalytic domain of gNC1 (construct gNC1-301)
# Test: adenylyl cyclase assay on enriched gNC1-301, cAMP by radiobinding protein assay; ATP kinetics
# Format: biochemical, Giardia intestinalis
structure (smiles),measurement,value
"O=C(/C=C/c1ccc(O)c(O)c1)O[C@H](Cc1ccc(O)c(O)c1)C(=O)O [compound 3, rosmarinic acid]",IC50,10.1 ± 1.3 µM
